Experimental data as given in paper PMC4488150, “Structure-Based Optimization and Biological Evaluation of Pancreatic Lipase Inhibitors as Novel Potential Antiobesity Agents” (Natural Products and Bioprospecting, 2015).
pIC50: −log10 of the molar value. “Also recorded” adds a separate entry of the source.

How the values were obtained:
[1] = target: T1, Porcine pancreatic lipase (Sus scrofa, UniProt P00591); assay: In vitro pancreatic lipase inhibitory activity (p-nitrophenyl butyrate hydrolysis); assay type: biochemical; conditions: for pIC50: read-out: IC50 against pancreatic lipase; for pancreatic lipase inhibitory activity compared with compound A1: compared with compound A1 (best inhibitor of the first series)
T1 sequence (P00591 1-450): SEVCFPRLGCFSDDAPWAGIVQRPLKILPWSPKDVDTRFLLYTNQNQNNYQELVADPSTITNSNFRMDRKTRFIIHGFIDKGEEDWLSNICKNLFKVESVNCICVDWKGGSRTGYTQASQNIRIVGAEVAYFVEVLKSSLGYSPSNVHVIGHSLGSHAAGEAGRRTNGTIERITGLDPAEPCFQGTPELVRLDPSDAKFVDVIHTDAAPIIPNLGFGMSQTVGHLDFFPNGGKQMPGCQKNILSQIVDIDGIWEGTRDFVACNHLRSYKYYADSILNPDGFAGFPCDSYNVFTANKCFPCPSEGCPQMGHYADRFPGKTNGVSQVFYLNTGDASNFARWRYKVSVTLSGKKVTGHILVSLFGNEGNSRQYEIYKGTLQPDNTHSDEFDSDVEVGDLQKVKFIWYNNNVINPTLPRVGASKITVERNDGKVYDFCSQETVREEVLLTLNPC
Procedure: Compounds A1–A54 were then evaluated for their bioactivity to inhibit pancreatic lipase. Each test was performed in triplicate, and the IC50 values were calculated based on the amount of inhibitor required to produce 50 % inhibition compared with the DMSO vehicle control.
Porcine pancreatic lipase was used to evaluate the inhibitory activity of the monascus pigment derivatives. p-Nitrophenyl butyrate ([…]) was used as the substrate. First, an enzyme-buffer solution was prepared by adding 30 μL of lipase solution (in 10 mM morpholinepropanesulfonic acid (MOPS) and 1 mM EDTA, pH 6.8) to 850 μL of Tris buffer (100 mM Tris–HCl and 5 mM CaCl2, pH 7.0). Pigment solutions were prepared by dissolving each pigment in a mixture (1:1) of ethanol and distilled water. Subsequently, 100 μL of the pigment solution was mixed with 880 μL of the enzyme-buffer solution. Following incubation of the enzyme-pigment mixture for 15 min at 37 °C, 20 μL of the substrate solution (10 mM p-NPB in dimethyl formamide) was added. Enzymatic reactions were conducted for 15 min at 37 °C. The hydrolysis of p-NPB to p-nitrophenol was monitored at 400 nm using a spectrophotometer. One unit of the enzyme was defined as the amount required to liberate 1 μmol of p-nitrophenol under standard assay conditions.

[2] = system: HFD-induced C57BL/6 J obese mice; assay: High-fat diet-induced obese mice (diet-induced obesity); assay type: in vivo; conditions: for cholesterol (CHO) level / triglyceride (TG) level: blood after final dose
Procedure: Male C57BL/6 J mice were obtained from Beijing HFK Bioscience Co., Ltd. (Certificate No. SCXK 2014-0004), housed in a temperature- and humidity-controlled room with a 12-hour light/dark cycle, and allowed free access to solid food and tap water for one week prior to the experiments. All of the procedures were performed in accordance with the Institute Ethical Committee for Experimental Animal Use of the Yunnan Province and the Kunming Institute of Botany.
The kits used to determine the triglyceride (TG) and cholesterol (CHO) levels were obtained from the Zhongsheng Beikong Bioengineering Institute.
Three-week-old C57BL/6 J male mice were fed a normal diet for 1 week for acclimatization. Randomly selected mice were fed a normal diet or a 45 % fat diet. After 4 months, the body weights of the mice in the obese group were 20 % higher than those in the control group. These obese mice were randomly divided into the following three groups: the model (45 % fat diet), orlistat (45 % fat diet + orlistat) and Compound groups (45 % fat diet + compound C1). The drugs (50 mg/kg orlistat or 100 mg/kg compound C1) were intragastrically administered for 1 month. During this period, the mice were weighed once every 3 days. Following administration of the final dose, blood samples were collected via the orbital vein after ethyl ether exposure, and epididymal fat was isolated. TG and CHO levels were measured using kits. The ratio of epididymal fat to body weight represents the amount of white adipose tissue (WAT) of each mouse (normalized to the body weight).
Student’s t test was used for comparisons between groups, as indicated in Fig. 2. #p < 0.05, ## or **p < 0.01.

[3] = system: HFD-induced C57BL/6 J obese mice; assay: as above; assay type: in vivo; conditions: up to 400 mg/kg, data not shown
[4] = compound C1 100 mg/kg, 100 mg/kg

SMILES: CC(C)=CC[C@@]12C=C(COC(=O)CCCCCc3ccccc3)C[C@@H]1OC2=O [Compound A1, ((1R,5S)-1-(3-methylbut-2-en-1-yl)-7-oxo-6-oxabicyclo[3.2.0]hept-2-en-3-yl)methyl-6-phenylhexanoate]
- pIC50 [1]: 7.08

SMILES: CCCCCC[C@@H](OC(=O)[C@](OC)(c1ccccc1)C(F)(F)F)C1=C[C@@]2(CC=C(C)C)C(=O)O[C@H]2C1 [Compound B1, (R)-(R)-1-((1R,5S)-1-(3-methylbut-2-en-1-yl)-7-oxo-6-oxabicyclo[3.2.0]hept-2-en-3-yl)heptyl-3,3,3-trifluoro-2-methoxy-2-phenylpropanoate]
- pIC50 [1]: 7.52

SMILES: CCCCCCCCN(CCCCCCC)C(=O)C1=C[C@@]2(CC=C(C)C)C(=O)O[C@H]2C1 [Compound C1, (1R,5S)-N-heptyl-1-(3-methylbut-2-en-1-yl)-N-octyl-7-oxo-6-oxabicyclo[3.2.0]hept-2-ene-3-carboxamide]
- pIC50 [1]: 7.85
- pancreatic lipase inhibitory activity, fold higher than that of vibralactone ([1]; relative to vibralactone): more than 3000 fold
- in vivo activity compared with orlistat ([2]; C1 100 mg/kg vs orlistat 50 mg/kg): lower activity than that of orlistat
- body weight ([2]; compound C1 100 mg/kg, 33 days, intragastric, vs HFD model group, 100 mg/kg): gradually decreased; also recorded: weight loss; also recorded: significantly low; also recorded: significantly lower
- HFD-induced obesity ([2]; compound C1 100 mg/kg, 33 days, intragastric, 100 mg/kg): significantly decreased
- cholesterol (CHO) level [2, 4]: significantly decreased
- triglyceride (TG) level [2, 4]: significantly decreased; also recorded: significantly reduced
- fat weight (epididymal white adipose tissue, normalized to body weight) ([2]; compound C1 100 mg/kg, one month, 100 mg/kg): gradually decreased; also recorded: significantly decreased
- toxicity or adverse behavioral effects [3]: without toxicity or adverse behavioral effects

SMILES: CCCCCCCCN(CCCCCCCC)C(=O)C1=C[C@@]2(CC=C(C)C)C(=O)O[C@H]2C1 [Compound C2, (1R,5S)-1-(3-methylbut-2-en-1-yl)-N,N-dioctyl-7-oxo-6-oxabicyclo[3.2.0]hept-2-ene-3-carboxamide]
- pancreatic lipase inhibitory activity compared with compound A1 [1]: higher inhibitory activities than compound A1

SMILES: CCCCCCCN(CCCCCCC)C(=O)C1=C[C@@]2(CC=C(C)C)C(=O)O[C@H]2C1 [Compound C3, (1R,5S)-N,N-diheptyl-1-(3-methylbut-2-en-1-yl)-7-oxo-6-oxabicyclo[3.2.0]hept-2-ene-3-carboxamide]
- pancreatic lipase inhibitory activity compared with compound A1 [1]: higher inhibitory activities than compound A1

SMILES: CCCCCCCCCCC[C@@H](C[C@@H]1OC(=O)[C@H]1CCCCCC)OC(=O)[C@H](CC(C)C)NC=O [orlistat, reference compound]
- cholesterol (CHO) level ([2]; orlistat 50 mg/kg): significantly decreased
- triglyceride (TG) level ([2]; orlistat 50 mg/kg): significantly decreased
- fat weight (epididymal white adipose tissue, normalized to body weight) ([2]; orlistat 50 mg/kg, one month): gradually decreased; also recorded: significantly decreased
- body weight ([2]; orlistat 50 mg/kg, one month, intragastric): gradually decreased

SMILES: CC(C)=CC[C@@]12C=C(CO)C[C@@H]1OC2=O [vibralactone, reference compound]
- pIC50 [1]: 4.33
